Test system: male White rabbits
Experiment: Test of cholesterol-lowering effect in rabbits fed 1% cholesterol diet
Type: in vivo
Protocol: The cholesterol-lowering effect of Statan A was compared against a control in male White rabbits (purchased from Hvidesten, DK). The rabbits were housed in individual stainless steel cages with free access to water. The rabbits were divided into groups with similar baseline values of plasma cholesterol, which groups received: • 1) 5 mg/day PD498 (n=2)(Statan A), • 2) control group (n=4).
The rabbits were treated for 3 days. All animals were fed daily with 100 g of a standard rabbit diet (Altromin, Lage, Germany) containing 1% cholesterol. All test drugs were added to the diet. Remaining food were weighed.
Blood samples for cholesterol determination were drawn at baseline and at the three following days. Blood samples were taken from the marginal ear vein and the cholesterol determination was done the same day by enzymatic […] methods, using a commercially available kit (CHOD-PAP, Roche), on a COBAS MIRA auto-analyzer (Roche, Basle, CH).
Ten kg 1% cholesterol chow: 100 g cholesterol is dissolved in 500 g corn oil by heating to 40° C. […]

SMILES	Total plasma cholesterol levels compared to the control group (male White rabbits, 5 mg/day in 1% cholesterol diet, treated for 3 days, blood at baseline and three following days, FIG. 2)	cholesterol-lowering effect (rabbits, same method as Example 13)
Cc1ccc2cccc(O)c2c1CCC1CC(O)CC(=O)O1 (centres unmarked) [Statan A]	consistently lower	
Cc1ccc2ccccc2c1CC[C@@H]1C[C@@H](O)CC(=O)O1 [solistatin]		had cholesterol-lowering effect

Source: patent publication US7304091B2, “Statin-like compounds” (Myco TeO A/S, priority 2001, dated 2007)
